Measured values published in patent publication US9505821B2, “ATAP peptides, nucleic acids encoding the same and associated methods of use” (Rutgers, The State University of New Jersey, priority 2006, dated 2016).

B1: FLAG-Bfl-1: FLAG-tagged full-length Bfl-1 (protein, UniProt Q16548 1-175, looked up)
chain: MTDCEFGYIYRLAQDYLQCVLQIPQPGSGPSKTSRVLQNVAFSVQKEVEKNLKSCLDNVNVVSVDTARTLFNQVMEKEFEDGIINWGRIVTIFAFEGILIKKLLRQQIAPDVDTYKEISYFVAEFIMNNTGEWIRQNGGWENGFVKKFEPKSGWMTFLEVTGKICEMLSLLKQYC
modifications: full-length FLAG tag

Columns and labels:
[1] = tested on: mitochondria membrane isolated from BMK-D3 cells; test: in vitro cytochrome c release from isolated mitochondria; assay type: biochemical, mouse; conditions: synthetic peptide 100 μM, 1 hour at 37° C.
Description: Mitochondria-free cytosol was prepared as previously described (Ko et al., 2003a). Briefly, 24 hours after transfection, HEK293 cells were collected by scraping, washed twice with ice-cold PBS, suspended in […] extraction buffer (50 mM PIPES-KOH, pH 7.4, 200 mM mannitol, 70 mM sucrose, 50 mM KCl, 5 mM EGTA, 2 mM MgCl2, 1 mM dithiothreitol and protease inhibitors), and incubated on ice for 30 minutes. Cells were lysed by Dounce homogenization and homogenates were centrifuged at 100,000 g for 15 minutes at 4° C. Supernatants were harvested and 20 μg of protein was analyzed by western blotting using monoclonal anticytochrome c antibody. For in vitro analysis of cytochrome c release, heavy membranes enriched in mitochondria were isolated from BMK-D3 cells using a mitochondria fractionation kit (Active Motif) according to the instructions of the manufacturer. Isolated mitochondria were diluted to a concentration of 1 mg/ml in the extraction buffer and incubated with synthetic ATAP or mHR7 peptides (100 μM) or DMSO as control for 1 hour at 37° C. The reactions were then centrifuged at 13,000 g for 10 minutes and the resulting pellets and supernatants were analyzed by SDS-PAGE.

[2] = planar lipid bilayer reconstitution, electrophysiology
Description: The 29-mer ATAP peptide ([…]) (SEQ ID NO.: 36) corresponding to the C-terminus of Bfl1 and its mutant mHR7 (KFEP-KSGWMTFLQVTG-LICQMLSLLKQYC) (SEQ ID NO.: 50) were synthesized by Abgent (San Diego, Calif.) with 99% purity as measured by HPLC and mass spectrometry. The peptides were dissolved in DMSO to make a 10 mM stock. Phospholipids were purchased from Avanti Polar Lipids (Birmingham, Ala.). Electrophysiological analysis was performed as described (Lam et al., 1998; Ma et al., 1988). Lipid bilayer membranes were formed across an aperture of 200 μm diameter with a 1:1 mixture of bovine brain phosphatidylethanolamine and bovine brain phosphatidylserine dissolved in n-decane at a concentration of 50 mg/ml. The recording solutions contained: cis, 200 mM KCl and 10 mM HEPES-Tris (pH 7.4); trans, 50 mM NaCl, 10 mM HEPES-Tris (pH 7.4). 1 n1 of 10 mM peptides dissolved in DMSO were added into 900 n1 of cis solution and fused into the bilayer. Voltage manipulation and currents were measured using an Axopatch 200 A amplifier (Axon Instruments, Foster City, Calif.). Data analyses were preformed with pClamp and TIPS software.

E. coli = test: toxicity of bacterial expression; assay type: cell-based; conditions: data not shown
HEK293 cells [3] = test: β-galactosidase reporter assay of cell viability after co-transfection; assay type: cell-based; conditions: HEK293, 24 h after co-transfection, n=5
Description: (§1) Apoptotic cell death was monitored after transfection of expression plasmids into HEK293, HeLa, MCF-7 or BMK D3 cells. 2×10^5 cells were cultured in 35-mm wells for 24 hours in Dulbecco's modified Eagle's medium (DMEM) supplemented with 10% fetal bovine serum. Cells were transfected using the Lipofectamine 2000 reagent (Invitrogen), with 1 μg of the indicated expression plasmids and further cultured in the absence or presence of 50 μM of pan-caspase inhibitor, Q-VD-OPH (OPH, Enzyme Systems Products). For morphological assessment of apoptotic cell death, cells were plated onto LabTek II chamber slides (Nalgen Nunc International) at densities of 5×10^4 cells per well. 24 hours after transfection, cells were washed with phosphate-buffered saline (PBS) prior to fixation with 4% formaldehyde. […] Cell death was also measured by propidium iodide (PI) exclusion. […] Cells were observed and photographed with a fluorescence microscope at three different fields containing approximately 200 GFP-positive cells. GFP and PI double-positive cells were counted as dead cells. Quantitative analysis of cell viability was determined by _-galactosidase reporter assay according to the procedures as described (Chittenden et al., 1995; Wood and Newcomb, 2000). […] At 24 hours following transfection, cells were harvested and β-galactosidase activity was measured using β-Galactosidase Enzyme Assay System (Promega). […]

HEK293 cells [4] = test: cell death by propidium iodide (PI) staining / exclusion after transfection; assay type: cell-based; conditions: HEK293, 24 h after transfection
Description: as §1

Row | Molecule | cytochrome c release from isolated mitochondria [1] | changes in membrane conductance ([2]; peptide 11-44 μM, n=35) | reversal potential for currents ([2]; 200 mM KCl (cis) / 50 mM NaCl (trans)) [mV] | rupture of the lipid bilayer, time after addition of the peptide ([2]; peptide >22.2 μM, n>30) [min] | toxicity of expression in E. coli (E. coli) | toxicity of expression in E. coli (E. coli; listed as Bfl-1 TA peptide) | β-galactosidase activity (HEK293 cells [3]) [fold over control] | cell death by PI staining (HEK293 cells [4])
1 | KFEP-KSGWMTFLQVTG-LICQMLSLLKQYC (KFEPKSGWMTFLEVTGLICEMLSLLKQYC; (1)..(29) K163L - ATAP; listed as Homo sapiens) [mHR7 peptide, synthetic mutant of the 29-mer ATAP peptide] | not observed | did not induce any notable changes in membrane conductance | – | – | – | – | – | –
2 | KFEPKSGWMTFLEVTGKICEMLSLLKQYC ((1)..(29) ATAP peptide derived from residues 147-175 of Bfl-1; listed as Homo sapiens) [29-mer amphipathic tail-anchoring peptide corresponding to the C-terminus of Bfl1 (a.a. 147-175)] | induced release of cytochrome c | – | ~−30 | ≤ 30 | lysis of the cells | toxic to E. coli cell growth | – | –
3 | B1 | – | – | – | – | – | – | 1.11±0.06 | no toxic effect
